± gives the expanded uncertainty stated by the source.
Assay: xn = mol fraction of the nth substance listed
Details: 101 kPa, Liquid; for speed of sound: Sing-around technique in a fixed-path interferometer; for mass density: Vibrating tube method

CCCCCCn1cc[n+](C)c1.F[P-](F)(F)(F)(F)F [1-hexyl-3-methylimidazolium hexafluorophosphate] + COCCO
Details | mass density [kg/m3] | speed of sound [m/s]
288.15 K, x1 = 0.0503 | 1020.76 ± 0.19 | 1399.2 ± 0.88
288.15 K, x1 = 0.1092 | 1067.45 ± 0.18 | 1411 ± 0.9
288.15 K, x1 = 0.2006 | 1121.27 ± 0.2 | 1419.8 ± 0.93
288.15 K, x1 = 0.3032 | 1165.23 ± 0.22 | 1422.9 ± 0.96
288.15 K, x1 = 0.4013 | 1197.38 ± 0.25 | 1424.7 ± 1
288.15 K, x1 = 0.5017 | 1223.62 ± 0.29 | 1427.5 ± 1
288.15 K, x1 = 0.6054 | 1245.52 ± 0.33 | 1433.9 ± 1.1
288.15 K, x1 = 0.7024 | 1262.69 ± 0.36 | 1434.3 ± 1.1
288.15 K, x1 = 0.8019 | 1277.93 ± 0.4 | 1436.7 ± 1.1
288.15 K, x1 = 0.9094 | 1292.27 ± 0.45 | 1442.3 ± 1.2
293.15 K, x1 = 0.0503 | 1016.22 ± 0.18 | 1382.5 ± 0.87
293.15 K, x1 = 0.1092 | 1062.97 ± 0.18 | 1394.8 ± 0.89
293.15 K, x1 = 0.2006 | 1116.89 ± 0.19 | 1404.6 ± 0.92
293.15 K, x1 = 0.3032 | 1160.9 ± 0.22 | 1408.6 ± 0.96
293.15 K, x1 = 0.4013 | 1193.08 ± 0.25 | 1411.3 ± 0.99
293.15 K, x1 = 0.5017 | 1219.44 ± 0.29 | 1414.5 ± 1
293.15 K, x1 = 0.6054 | 1241.45 ± 0.32 | 1421.2 ± 1.1
293.15 K, x1 = 0.7024 | 1258.71 ± 0.36 | 1421.4 ± 1.1
293.15 K, x1 = 0.8019 | 1273.92 ± 0.4 | 1424 ± 1.1
293.15 K, x1 = 0.9094 | 1288.2 ± 0.44 | 1428.6 ± 1.2
298.15 K, x1 = 0.0503 | 1011.72 ± 0.18 | 1365.8 ± 0.87
298.15 K, x1 = 0.1092 | 1058.47 ± 0.18 | 1378.9 ± 0.89
298.15 K, x1 = 0.2006 | 1112.46 ± 0.19 | 1389.6 ± 0.92
298.15 K, x1 = 0.3032 | 1156.56 ± 0.22 | 1394.5 ± 0.95
298.15 K, x1 = 0.4013 | 1188.79 ± 0.25 | 1398 ± 0.99
298.15 K, x1 = 0.5017 | 1215.23 ± 0.28 | 1401.7 ± 1
298.15 K, x1 = 0.6054 | 1237.4 ± 0.32 | 1407.8 ± 1.1
298.15 K, x1 = 0.7024 | 1254.67 ± 0.36 | 1408.9 ± 1.1
298.15 K, x1 = 0.8019 | 1269.91 ± 0.4 | 1411.5 ± 1.1
298.15 K, x1 = 0.9094 | 1284.2 ± 0.44 | 1415.8 ± 1.2
303.15 K, x1 = 0.0503 | 1007.16 ± 0.18 | 1349.2 ± 0.86
303.15 K, x1 = 0.1092 | 1053.96 ± 0.18 | 1362.9 ± 0.88
303.15 K, x1 = 0.2006 | 1108.02 ± 0.19 | 1374.7 ± 0.91
303.15 K, x1 = 0.3032 | 1152.21 ± 0.22 | 1380.7 ± 0.95
303.15 K, x1 = 0.4013 | 1184.47 ± 0.25 | 1385.2 ± 0.99
303.15 K, x1 = 0.5017 | 1210.98 ± 0.28 | 1389 ± 1
303.15 K, x1 = 0.6054 | 1233.3 ± 0.32 | 1395.1 ± 1.1
303.15 K, x1 = 0.7024 | 1250.63 ± 0.35 | 1396.7 ± 1.1
303.15 K, x1 = 0.8019 | 1265.91 ± 0.39 | 1399.4 ± 1.1
303.15 K, x1 = 0.9094 | 1280.2 ± 0.44 | 1403.3 ± 1.2
308.15 K, x1 = 0.0503 | 1002.49 ± 0.18 | 1332.7 ± 0.86
308.15 K, x1 = 0.1092 | 1049.43 ± 0.18 | 1347.1 ± 0.88
308.15 K, x1 = 0.2006 | 1103.58 ± 0.19 | 1359.9 ± 0.91
308.15 K, x1 = 0.3032 | 1147.84 ± 0.21 | 1367.3 ± 0.95
308.15 K, x1 = 0.4013 | 1180.37 ± 0.24 | 1372.3 ± 0.98
308.15 K, x1 = 0.5017 | 1206.95 ± 0.28 | 1376.4 ± 1
308.15 K, x1 = 0.6054 | 1229.34 ± 0.32 | 1382.4 ± 1.1
308.15 K, x1 = 0.7024 | 1246.77 ± 0.35 | 1384.5 ± 1.1
308.15 K, x1 = 0.8019 | 1262.04 ± 0.39 | 1387.4 ± 1.1
308.15 K, x1 = 0.9094 | 1276.2 ± 0.43 | 1391.3 ± 1.2
313.15 K, x1 = 0.0503 | 997.703 ± 0.18 | 1316.2 ± 0.85
313.15 K, x1 = 0.1092 | 1044.81 ± 0.18 | 1331.4 ± 0.87
313.15 K, x1 = 0.2006 | 1099.15 ± 0.19 | 1345.2 ± 0.91
313.15 K, x1 = 0.3032 | 1143.59 ± 0.21 | 1353.7 ± 0.94
313.15 K, x1 = 0.4013 | 1176 ± 0.24 | 1359.4 ± 0.98
313.15 K, x1 = 0.5017 | 1202.67 ± 0.28 | 1364 ± 1
313.15 K, x1 = 0.6054 | 1225.28 ± 0.31 | 1370 ± 1.1
313.15 K, x1 = 0.7024 | 1242.9 ± 0.35 | 1372.4 ± 1.1
313.15 K, x1 = 0.8019 | 1258.23 ± 0.39 | 1375.7 ± 1.1
313.15 K, x1 = 0.9094 | 1272.23 ± 0.43 | 1379.5 ± 1.2
318.15 K, x1 = 0.0503 | 993.086 ± 0.18 | 1299.8 ± 0.85
318.15 K, x1 = 0.1092 | 1040.18 ± 0.18 | 1316 ± 0.87
318.15 K, x1 = 0.2006 | 1094.74 ± 0.19 | 1330.8 ± 0.9
318.15 K, x1 = 0.3032 | 1139.13 ± 0.21 | 1340.3 ± 0.94
318.15 K, x1 = 0.4013 | 1171.68 ± 0.24 | 1346.7 ± 0.98
318.15 K, x1 = 0.5017 | 1198.47 ± 0.27 | 1351.6 ± 1
318.15 K, x1 = 0.6054 | 1221.29 ± 0.31 | 1357.5 ± 1.1
318.15 K, x1 = 0.7024 | 1239.06 ± 0.35 | 1360.5 ± 1.1
318.15 K, x1 = 0.8019 | 1254.4 ± 0.38 | 1364.1 ± 1.1
318.15 K, x1 = 0.9094 | 1268.47 ± 0.43 | 1368.1 ± 1.2
